In publication PMC5762338, “A novel orally available Syk/Src/Jak2 inhibitor, SKLB-850, showed potent anti-tumor activities in B cell lymphoma (BCL) models” (Oncotarget, 2017):

Tests used:
Ramos cells = experiment: Apoptosis assay, AnnexinV-FITC/propidium iodide FCM; type: cell-based, Human; conditions: treatment for 18 hours
Protocol: Figure 1 The chemical structure of SKLB-850 and its anti-tumor effects in vitro (A) The chemical structure of SKLB-850. (B and C) Apoptosis of Ramos cells induced by SKLB-850. Cells were treated by vehicle, R788 or indicated concentrations of compounds. After 18 hours, Cell were harvested and stained with AnnexinV-FITC and propidium iodide, then the apoptosis cells were analyzed by FCM. (D and E) Apoptosis of HBL-1 cells induced by SKLB-850. Cells were treated by vehicle, R788 or indicated concentrations of compounds. After 24 hours, Cell were harvested and stained with AnnexinV-FITC and propidium iodide, then the apoptosis cells were analyzed by FCM. […] Columns, mean; bars, SD. ^##P<0.01, or ^#P<0.05, SKLB-850 group versus vehicle group. […]
The ability of SKLB-850 to induce apoptosis of BCL cells was analyzed by FCM. […]
Flow cytometry (FCM) assays were performed to investigate the apoptosis of Ramos and HBL-1 cells induced by SKLB-850. […] Cell apoptosis was analyzed with a flow cytometer (BD FACSCalibur, BD, USA).

HBL-1 xenograft = HBL-1 xenograft mouse model; type: in vivo, NOD/SCID mice; conditions: HBL-1 model
Protocol: The in vivo anti-BCL effects of SKLB-850 were investigated in the Ramos and HBL xenograft mouse models with R788 being taken as a positive control. The animals were treated orally once daily for 21 days (Ramos model) or 36 days (HBL-1 model).
All animal studies were conducted according to the guidelines of the Animal Care and Use Committee of Sichuan University (Permit Number: 20121205, Chengdu, Sichuan, China). Ramos and HBL-1 tumor cells were established by subcutaneously injecting 1×10^7 cells (100μL) into the hind flank region of 7–8 week old female NOD/SCID mice (ICR, NOD/SCID). When tumors reached a volume of ∼200 mm^3, mice were randomly divided into different groups (6 per group), and SKLB-850 (40 mg/kg, 20mg/kg) or vehicle (5% DMSO, 25% PEG400, and 70% waters) were given once daily by oral gavage. Tumor growth and body weight were measured every three days or every day during the treatment. Tumor volumes were calculated using the formula as follow: tumor volume (mm^3) = 0.5× length (mm) × width (mm) ^2. Studies were typically terminated when tumors in vehicle treated animals reached an average size of 2,000 mm^3. Solid tumors were removed and processed for immunohistochemical analysis and terminal deoxynucleotidyl transferase-mediated dUTP nick end labeling (TUNEL) assay.

Compound	percentages of apoptotic cells (in words) (Ramos cells)	anti-tumor effect (in words) (HBL-1 xenograft; positive control, orally once daily)	tumor inhibition rate (HBL-1 xenograft; 20 mg/kg orally once daily for 36 days)
COc1cc(Nc2ncc(F)c(Nc3ccc4c(n3)N(COP(=O)(O)O)C(=O)C(C)(C)O4)n2)cc(OC)c1OC [R788, reference compound]	induced apoptosis but obviously much weaker	some anti-tumor effect	
CN1CCN(c2ccc(Nc3ncc(F)c(Nc4ccc(Cl)cc4C(N)=O)n3)cc2)CC1 [SKLB-850, 5-chloro-2-((5-fluoro-2-((4-(4-methylpiperazin-1-yl)phenyl)amino)pyrimidin-4-yl)amino) benzamide]	dose-dependently increased		80.84% ±4.09%
